Measured values from US9815787B2, “Sulfonamide derivative or pharmaceutically acceptable acid addition salt thereof” (UNIVERSITY OF TSUKUBA, priority 2013, dated 2017).

Target: T1, OX2R (Homo sapiens, UniProt O43614)
T1 construct: expressed in transfected cells; host or cells: CHO (Chinese hamster ovary) cells constitutively expressing the OX2R gene and NFAT-luciferase (CHOOX2R)
T1 sequence (O43614 1-444): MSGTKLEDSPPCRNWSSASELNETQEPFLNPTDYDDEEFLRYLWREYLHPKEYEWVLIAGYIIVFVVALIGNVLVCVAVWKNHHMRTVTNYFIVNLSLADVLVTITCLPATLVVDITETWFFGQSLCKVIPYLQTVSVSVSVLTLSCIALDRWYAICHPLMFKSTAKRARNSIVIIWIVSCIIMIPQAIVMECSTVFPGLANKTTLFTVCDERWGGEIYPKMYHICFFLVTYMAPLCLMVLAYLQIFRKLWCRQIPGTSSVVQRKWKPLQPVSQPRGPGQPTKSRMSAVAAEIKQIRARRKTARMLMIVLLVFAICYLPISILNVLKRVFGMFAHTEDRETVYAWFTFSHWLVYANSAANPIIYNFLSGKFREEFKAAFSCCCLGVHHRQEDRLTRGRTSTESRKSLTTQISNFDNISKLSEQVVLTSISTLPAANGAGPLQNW
Assay: Evaluation of agonist activity against OX2R (CHOOX2R cells, Fura2AM fluorescence, FDSS3000)
Assay type: cell-based
Procedure, shortened: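 CHO cells stably expressing human OX2R (and NFAT-luciferase), cultured 48 h in 5% FBS DMEM. Agonist response read as change in Fura2AM fluorescence on compound addition in HEPES buffer. Final compound concentrations 0.1, 1.0 or 10 μM; 1% DMSO.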

[1] = test compound 0.1 μM; CHOOX2R cells; relative to orexin-A as full agonist (100%)
[2] = test compound 1.0 μM; CHOOX2R cells; relative to orexin-A as full agonist (100%)
[3] = test compound 10 μM; CHOOX2R cells; relative to orexin-A as full agonist (100%)
[4] = test compound 0.1 μM; relative to orexin-A as full agonist (100%); CHOOX2R cells
[5] = test compound 1.0 μM; relative to orexin-A as full agonist (100%); CHOOX2R cells
[6] = test compound 10 μM; relative to orexin-A as full agonist (100%); CHOOX2R cells

Row | SMILES | Response (0.1 μM (%)) [1] [%] | Response (1.0 μM (%)) [2] [%] | Response (10 μM (%)) [3] [%] | EC50 (OX2R agonist activity; CHOOX2R cells) [nM] | Emax (conversion with orexin-A as full agonist (maximum agonist activity 100%)) [%] | Response (0.1 μM (%)) [4] [%] | Response (1.0 μM (%)) [5] [%] | Response (10 μM (%)) [6] [%]
1 | COc1ccc(-c2cccc(C(=O)N3CCC3)c2)cc1S(=O)(=O)Nc1cccc(NCCNC(=O)c2ccccc2Cl)c1 [Example 82, N-(2-((3-(3′-(azetidine-1-carbonyl)-4-methoxy-[1,1′-biphenyl]-3-ylsulfonamido)phenyl)amino)ethyl)-2-chlorobenzamide] | <5 | 51 | 74 |  |  |  |  | 
2 | COc1cccc(C(=O)NCCNc2cccc(NS(=O)(=O)c3cc(-c4cccc(C(=O)N5CCC5)c4)ccc3OC)c2)n1 [Example 83, N-(2-((3-(3′-(azetidine-1-carbonyl)-4-methoxy-[1,1′-biphenyl]-3-ylsulfonamido)phenyl)amino)ethyl)-6-methoxypicolinamide] | <5 | 10 | 71 |  |  |  |  | 
3 | COc1ccc(-c2cccc(C(=O)N3CCC3)c2)cc1S(=O)(=O)Nc1cccc(NCCNC(=O)c2cccc(F)c2)c1 [Example 84, N-(2-((3-(3′-(azetidine-1-carbonyl)-4-methoxy-[1,1′-biphenyl]-3-ylsulfonamido)phenyl)amino)ethyl)-3-fluorobenzamide] | 7 | 58 | 70 |  |  |  |  | 
4 | COc1ccc(-c2cccc(C(=O)N3CCC3)c2)cc1S(=O)(=O)Nc1cccc(NCCNC(=O)c2c(OC)cccc2OC)c1 [Example 85, N-(2-((3-(3′-(azetidine-1-carbonyl)-4-methoxy-[1,1′-biphenyl]-3-ylsulfonamido)phenyl)amino)ethyl)-2,6-dimethoxybenzamide] | 19 | 90 | 90 |  |  |  |  | 
5 | COc1cccc(C(=O)NCCNc2cccc(NS(=O)(=O)c3cc(-c4cccc(C(=O)N5CCCC5)c4)ccc3OC)c2)c1 [Example 86, 3-methoxy-N-(2-((3-(4-methoxy-3′-(pyrrolidine-1-carbonyl)-[1,1′-biphenyl]-3-ylsulfonamido)phenyl)amino)ethyl)benzamide] | 10 | 89 | 81 |  |  |  |  | 
6 | COc1ccc(-c2cccc(C(=O)N3CCCC3)c2)cc1S(=O)(=O)Nc1cccc(NCCNC(=O)c2ccccc2Cl)c1 [Example 87, 2-chloro-N-(2-((3-(4-methoxy-3′-(pyrrolidine-1-carbonyl)-[1,1′-biphenyl]-3-ylsulfonamido)phenyl)amino)ethyl)benzamide] | 42 | 90 | 80 |  |  |  |  | 
7 | COc1ccc(-c2cccc(C(=O)N3CCCC3)c2)cc1S(=O)(=O)Nc1cccc(NCCNC(=O)c2c(F)cccc2F)c1 [Example 88, 2,6-difluoro-N-(2-((3-(4-methoxy-3′-(pyrrolidine-1-carbonyl)-[1,1′-biphenyl]-3-ylsulfonamido)phenyl)amino)ethyl)benzamide] | 76 | 100 | 86 |  |  |  |  | 
8 | COc1ccc(-c2cccc(C(=O)N3CCCC3)c2)cc1S(=O)(=O)Nc1cccc(NCCNC(=O)c2sccc2Cl)c1 [Example 89, 3-chloro-N-(2-((3-(4-methoxy-3′-(pyrrolidine-1-carbonyl)-[1,1′-biphenyl]-3-ylsulfonamido)phenyl)amino)ethyl)thiophene-2-carboxamide] | 93 | 96 | 97 |  |  |  |  | 
9 | COc1ccc(-c2cccc(C(=O)N3CCCCC3)c2)cc1S(=O)(=O)Nc1cccc(NCCNC(=O)c2ccccc2F)c1 [Example 90, 2-fluoro-N-(2-((3-(4-methoxy-3′-(piperidine-1-carbonyl)-[1,1′-biphenyl]-3-ylsulfonamido)phenyl)amino)ethyl)benzamide] | 51 | 68 | 88 |  |  |  |  | 
10 | COc1ccc(-c2cccc(C(=O)N3CCCCC3)c2)cc1S(=O)(=O)Nc1cccc(NCCNC(=O)c2cccnc2OC)c1 [Example 91, 2-methoxy-N-(2-((3-(4-methoxy-3′-(piperidine-1-carbonyl)-[1,1′-biphenyl]-3-ylsulfonamido)phenyl)amino)ethyl)nicotinamide] | 42 | 90 | 80 |  |  |  |  | 
11 | COc1ccc(-c2cccc(C(=O)N3CCCCC3)c2)cc1S(=O)(=O)Nc1cccc(NCCNC(=O)c2cccc(F)c2)c1 [Example 92, 3-fluoro-N-(2-((3-(4-methoxy-3′-(piperidine-1-carbonyl)-[1,1′-biphenyl]-3-ylsulfonamido)phenyl)amino)ethyl)benzamide] | 27 | 92 | 94 |  |  |  |  | 

Results, then the compound that gave them:

Row | Response (0.1 μM (%)) [1] [%] | Response (1.0 μM (%)) [2] [%] | Response (10 μM (%)) [3] [%] | EC50 (OX2R agonist activity; CHOOX2R cells) [nM] | Emax (conversion with orexin-A as full agonist (maximum agonist activity 100%)) [%] | Response (0.1 μM (%)) [4] [%] | Response (1.0 μM (%)) [5] [%] | Response (10 μM (%)) [6] [%] | SMILES
12 | <5 | 33 | 73 |  |  |  |  |  | COc1cccc(C(=O)NCCNc2cccc(NS(=O)(=O)c3cc(-c4ncccc4F)ccc3OC)c2)c1 [Example 93, N-(2-((3-(5-(3-fluoropyridin-2-yl)-2-methoxyphenylsulfonamido)phenyl)amino)ethyl)-3-methoxybenzamide]
13 | <5 | <5 | 22 |  |  |  |  |  | COc1cccc(-c2ccc(OC)c(S(=O)(=O)Nc3cccc(NCCNC(=O)c4ccccc4OC)c3)c2)n1 [Example 94, 2-methoxy-N-(2-((3-(2-methoxy-5-(6-methoxypyridin-2-yl)phenylsulfonamido)phenyl)amino)ethyl)benzamide]
14 | <5 | <5 | 30 |  |  |  |  |  | COc1cccc(C(=O)NCCNc2cccc(NS(=O)(=O)c3cc(-c4cccc(OC)n4)ccc3OC)c2)c1 [Example 95, 3-methoxy-N-(2-((3-(2-methoxy-5-(6-methoxypyridin-2-yl)phenylsulfonamido)phenyl)amino)ethyl)benzamide]
15 | <5 | 61 | 88 | 268 | 88 |  |  |  | COc1ccccc1C(=O)NCCNc1cccc(NS(=O)(=O)c2cc(-c3cccnc3)ccc2OC)c1 [Example 96, 2-methoxy-N-(2-((3-(2-methoxy-5-(pyridin-3-yl)phenylsulfonamido)phenyl)amino)ethyl)benzamide]
16 | <5 | 12 | 37 |  |  |  |  |  | COc1cncc(-c2ccc(OC)c(S(=O)(=O)Nc3cccc(NCCNC(=O)c4ccccc4OC)c3)c2)c1 [Example 97, 2-methoxy-N-(2-((3-(2-methoxy-5-(5-methoxypyridin-3-yl)phenylsulfonamido)phenyl)amino)ethyl)benzamide]
17 |  |  |  |  |  | <5 | 22 | 91 | COc1cccc(C(=O)NCCNc2cccc(NS(=O)(=O)c3cc(-c4cncc(OC)c4)ccc3OC)c2)c1 [Example 98, 3-methoxy-N-(2-((3-(2-methoxy-5-(5-methoxypyridin-3-yl)phenylsulfonamido)phenyl)amino)ethyl)benzamide]
18 |  |  |  |  |  | 61 | 83 | 85 | COc1cc(C)c(-c2cccc(C(=O)N(C)C)c2)cc1S(=O)(=O)Nc1cccc(NCCNC(=O)c2cccc(F)c2)c1 [Example 102, 5′-(N-(3-((2-(3-fluorobenzamido)ethyl)amino)phenyl)sulfamoyl)-4′-methoxy-N,N,2′-trimethyl-[1,1′-biphenyl]-3-carboxamide]
19 |  |  |  |  |  | 77 | 93 | 80 | COc1cc(C)c(-c2cccc(C(=O)N(C)C)c2)cc1S(=O)(=O)Nc1cccc(NCCNC(=O)c2cccnc2OC)c1 [Example 103, N-(2-((3-(3′-(dimethylcarbamoyl)-4-methoxy-6-methyl-[1,1′-biphenyl]-3-ylsulfonamido)phenyl)amino)ethyl)-2-methoxynicotinamide]
20 |  |  |  |  |  | 67 | 88 | 86 | COc1cc(C)c(-c2cccc(C(=O)N(C)C)c2)cc1S(=O)(=O)Nc1cccc(NCCNC(=O)c2ccccc2Cl)c1 [Example 104, 5′-(N-(3-((2-(2-chlorobenzamido)ethyl)amino)phenyl)sulfamoyl)-4′-methoxy-N,N,2′-trimethyl-[1,1′-biphenyl]-3-carboxamide]
21 |  |  |  |  |  | 78 | 84 | 79 | COc1cc(C)c(-c2cccc(C(=O)N(C)C)c2)cc1S(=O)(=O)Nc1cccc(NCCNC(=O)c2sccc2Cl)c1 [Example 105, 3-chloro-N-(2-((3-(3′-(dimethylcarbamoyl)-4-methoxy-6-methyl-[1,1′-biphenyl]-3-ylsulfonamido)phenyl)amino)ethyl)thiophene-2-carboxamide]
